Source: patent US9556159B2, “Renin inhibitor” (MITSUBISHI TANABE PHARMA CORPORATION, priority 2012, dated 2017)

Target: T1, Recombinant human renin (Homo sapiens, UniProt P00797)
T1 sequence (P00797 67-406): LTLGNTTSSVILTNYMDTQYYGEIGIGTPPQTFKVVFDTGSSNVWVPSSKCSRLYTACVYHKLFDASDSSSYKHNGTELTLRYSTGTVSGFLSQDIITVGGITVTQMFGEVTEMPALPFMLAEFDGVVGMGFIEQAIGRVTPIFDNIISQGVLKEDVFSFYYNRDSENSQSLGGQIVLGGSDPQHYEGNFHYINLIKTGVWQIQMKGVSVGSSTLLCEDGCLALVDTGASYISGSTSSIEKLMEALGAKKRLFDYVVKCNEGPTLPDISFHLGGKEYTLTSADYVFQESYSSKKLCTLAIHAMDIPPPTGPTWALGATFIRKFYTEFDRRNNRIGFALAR
Test: Inhibitory activity against human renin (fluorogenic peptide substrate)
Type: biochemical
Conditions: 37° C. for 1 hour, read-out: IC50
Method: Inhibitory Activity Against Human Renin
A substrate of synthetic peptide (Nma-KHPFH LVIHK(Dnp)-NH2) and test compound were mixed, and fluorescence intensity was assayed using a fluorophotometer before starting an enzymatic reaction (exciting wavelength: 340 nm, measuring wavelength: 460 nm). Recombinant human renin was added and the mixture was incubated at 37° C. for 1 hour, and the fluorescence intensity was measured after the reaction using a fluorophotometer (exciting wavelength: 340 nm, measuring wavelength: 460 nm).

IC50 [nM] | SMILES
1.1 | COC(=O)NCCc1cn(C)c2ccc([C@@H](C)N(C(=O)[C@H]3CNCCO3)C3CC3)cc12 [Example 108]
3 | COCCCn1nc(C)c2ccc([C@@H](C)N(C(=O)[C@H]3CNCCO3)C3CC3)nc21 [Example 44]
0.5 | COCCCCn1cc([C@@H](C)N(C(=O)[C@H]2CNCCO2)C2CC2)c2ncc(C)cc21 [Example 20]
2 | COCCCc1cn(C)c2ccc([C@@H](C)N(C(=O)[C@H]3CNCCO3)C3CC3)nc12 [Example 39]
0.3 | COC(=O)NCCCn1cc([C@@H](C)N(C(=O)[C@H]2CNCCO2)C2CC2)nc1C1CCCCC1 [Example 6, methyl (3-{2-cyclohexyl-4-[(1R)-1-{cyclopropyl[(2R)-morpholin-2-ylcarbonyl]amino}ethyl]-1H-imidazol-1-yl}propyl)carbamate]
1 | COC(=O)NCCCn1nc([C@@H](C)N(C(=O)[C@H]2CNCCO2)C2CC2)c2ncc(C)cc21 [Example 70]
0.7 | COC(=O)NCCCc1cc([C@@H](C)N(C(=O)[C@H]2CNCCO2)C2CC2)ccc1OC(C)C [Example 107]
9 | COC(=O)NCCCn1nc([C@@H](C)N(C(=O)[C@H]2CNCCO2)C2CC2)c2ccc(CN(C)C)nc21 [Example 100]
1.6 | COCCCCn1cc([C@@H](C)N(C(=O)[C@H]2CNCCO2)C2CC2)c2ncc(C)nc21 [Example 93]
3.4 | COCCCN1C(=O)C(C)(C)c2ccc([C@@H](C)N(C(=O)[C@H]3CNCCO3)C3CC3)cc21 [Example 45]
1.1 | COCCCCn1cc([C@@H](C)N(C(=O)[C@H]2CNCCO2)C2CC2)c2nccc(CCOC)c21 [Example 86]

Same assay, conditions: 50% inhibitory concentration (IC50) against human renin, 37° C. for 1 hour

SMILES | IC50 [nM]
COC(=O)NCCCc1cc([C@@H](C)N(C(=O)[C@H]2CNCCO2)C2CC2)sc1C(F)(F)F [Example 246] | 0.4
COC(=O)NCCCn1cc([C@@H](C)N(C(=O)[C@H]2CNC[C@@H](C(F)(F)F)O2)C2CC2)c2ncccc21 [Example 252] | 6.4
COCCCCc1cc([C@@H](C)N(C(=O)[C@H]2CNC[C@@H](COC)O2)C2CC2)cc(OC)n1 [Example 304] | 0.7
COC(=O)NCCCc1nc([C@@H](C)N(C(=O)[C@H]2CNCCO2)C2CC2)sc1C(=O)Nc1ccccc1OC [Example 439] | 8
COC(=O)NCCN1CC(C)(C)c2ccc([C@@H](C)N(C(=O)[C@H]3CNCCO3)C3CC3)cc21 [Example 151] | 1
COC(=O)NCCCc1cc([C@@H](C)N(C(=O)[C@H]2CN[C@@H](CF)CO2)C2CC2)nn1-c1ccc(F)cc1 [Example 372] | 6
COC(=O)NCCCn1cc([C@@H](C)N(C(=O)[C@H]2CN[C@@H](C)CO2)C2CC2)nc1-c1ccccc1 [Example 353] | 0.4
COC(=O)NCCCn1nc([C@@H](C)N(C(=O)[C@H]2CNCCO2)C2CC2)c(F)c1-c1ccccc1 [Example 192] | 0.2
COC(=O)NCCCc1cc([C@H](C)N(C(=O)[C@H]2CNC[C@@H](CC#N)O2)C2CC2)cc(OC)n1 [Example 316] | 1.4
COC(=O)NCCCc1nc([C@@H](C)N(C(=O)[C@H]2CNCCO2)C2CC2)sc1-c1ccccc1 [Example 218] | 1.1
COC(=O)NCCCn1nc([C@@H](C)N(C(=O)[C@H]2CNC[C@@H](C(=O)NCc3ccccc3)O2)C2CC2)c2ccc(C)nc21 [Example 253] | 0.4
COC(=O)NCCCc1nc([C@@H](C)N(C(=O)[C@H]2CNCCO2)C2CC2)cnc1O[C@@H]1CCOC1 [Example 433] | 5.3
COC[C@@H]1CNC[C@H](C(=O)N(C2CC2)[C@H](C)c2cc(OC)c3ccccc3n2)O1 [Example 201] | 4.1
CC[C@H]1CO[C@@H](C(=O)N(C2CC2)[C@@H](C)c2cn(CCCNC(=O)OC)c(OC(C)C)n2)CN1 [Example 336] | 1.6
COC(=O)NCCCn1cc([C@H](C)N(C(=O)[C@H]2CN[C@@H](CCF)CO2)C2CC2)nc1OC(C)C [Example 341] | 0.3
COC(=O)NCC(F)Cn1nc([C@@H](C)N(C(=O)[C@H]2CNCCO2)C2CC2)cc1-c1ccccc1 (stereo partly shown) [Example 198] | 0.2
COC(=O)NCCCn1nc([C@@H](C)N(C(=O)[C@H]2CNC[C@@H](CO)O2)C2CC2)c2ccc(C)nc21 [Example 255] | 0.4
COC(=O)NCCCc1cc([C@@H](C)N(C(=O)[C@H]2CNCCO2)C2CC2)sc1-c1ccccc1O [Example 264] | 1.1
CCCCCc1cc([C@@H](C)N(C(=O)[C@H]2CNC[C@@H](C)O2)C2CC2)sc1-c1ccccc1-c1nn[nH]n1 [Example 294] | 6
COC(=O)NCCCn1cc([C@H](C)N(C(=O)[C@H]2CN[C@@H](C)CO2)C2CC2)nc1C1CCCCC1 [Example 335] | 0.9
COC(=O)NCCCc1cc([C@H](C)N(C(=O)[C@H]2CNC[C@@H](CN(C)C)O2)C2CC2)cc(OC)n1 [Example 321] | 5.6
COC(=O)NCCCc1cc(C(C)N(C(=O)[C@H]2CNCCO2)C2CC2)sc1C1CC1 (stereo partly shown) [Example 396] | 4.8
COC(=O)NCCCc1cc([C@H](C)N(C(=O)[C@H]2CNC[C@@H](CO)O2)C2CC2)cc(OC)n1 [Example 308] | 0.5
COC(=O)NCCCc1cc([C@@H](C)N(C(=O)[C@H]2CNC[C@@H](C)O2)C2CC2)nn1-c1ccccc1C [Example 345] | 0.4
CCc1nc([C@H](C)N(C(=O)[C@H]2CN[C@@H](C)CO2)C2CC2)cc2c1ccn2CCCOC [Example 397] | 1.3
COC(=O)NCCCc1sc([C@@H](C)N(C(=O)[C@H]2CNCCO2)C2CC2)cc1-c1ccc(F)cc1 [Example 428] | 8.1
COC(=O)NC/C=C/c1cc([C@@H](C)N(C(=O)[C@H]2CNC[C@@H](C)O2)C2CC2)nn1-c1ccc(C(F)(F)F)cc1 [Example 356] | 5.1
COC(=O)NCCCc1cc([C@@H](C)N(C(=O)[C@H]2CNCCO2)C2CC2)sc1-c1ccccc1-c1n[nH]c(=O)o1 [Example 276] | 0.5
COC(=O)NCCCc1cc([C@@H](C)N(C(=O)[C@H]2CNCCO2)C2CC2)sc1-c1cccc(F)c1O [Example 274] | 0.5

Results, then the molecule that gave them:

IC50 [nM] | SMILES
6.3 | COC(=O)NCCCn1cc([C@@H](C)N(C(=O)[C@H]2CNCCO2)C2CC2)c2cnc(C)cc21 [Example 135]
3.1 | COC(=O)NCCCc1csc([C@@H](C)N(C(=O)[C@H]2CNCCO2)C2CC2)c1 [Example 224]
0.7 | COC(=O)NCCCn1nc([C@@H](C)N(C(=O)[C@H]2CNCCO2)C2CC2)cc1C(C)(C)C [Example 191]
2.7 | COC(=O)NCCCc1sc([C@H](C)N(C(=O)[C@H]2CNCCO2)C2CC2)cc1Br [Example 437]
0.6 | COC(=O)NCCCn1cc([C@@H](C)N(C(=O)[C@H]2CNCCO2)C2CC2)nc1-c1cccc(F)c1 [Example 165]
2.5 | COC(=O)NCCCn1cc([C@H](C)N(C(=O)[C@H]2CNCCO2)C2CC2)nc1Oc1ccccc1 [Example 313]
2 | CCOc1ncc([C@@H](C)N(C(=O)[C@H]2CNCCO2)C2CC2)nc1CCCNC(=O)OC [Example 391]
0.3 | COC(=O)NCCCn1cc([C@@H](C)N(C(=O)[C@H]2CNCCO2)C2CC2)nc1-c1ccccc1Cl [Example 169]
4 | CCc1cc(CCCNC(=O)OC)nc([C@@H](C)N(C(=O)[C@H]2CNCCO2)C2CC2)n1 [Example 399]
0.7 | CCc1nc([C@@H](C)N(C(=O)[C@H]2CNC[C@@H](COC)O2)C2CC2)cc2c1ccn2CCCOC [Example 196]
0.3 | COC(=O)NCCCn1cc([C@@H](C)N(C(=O)[C@H]2CNCCO2)C2CC2)nc1-c1cccc(C)c1 [Example 178]
0.2 | COC(=O)NCCCc1cc([C@@H](C)N(C(=O)[C@H]2CNCCO2)C2CC2)sc1-c1ccccn1 [Example 227]
5.4 | COC(=O)NCCCc1cc([C@@H](C)N(C(=O)[C@H]2CNCCO2)C2CC2)ncc1OC [Example 121]
0.4 | COC(=O)NCCCn1nc([C@@H](C)N(C(=O)[C@H]2CNCCO2)C2CC2)cc1-c1ccc(OC)nc1 [Example 174]
1.3 | COC(=O)NCCCn1nc([C@@H](C)N(C(=O)[C@H]2CNCCO2)C2CC2)nc1-c1ccc(C)cc1 [Example 247]
2.1 | COC(=O)NCCCn1cc(C(C)N(C(=O)[C@H]2CNCCO2)C2CC2)c2ncc(F)cc21 (stereo partly shown) [Example 139]
0.3 | COC(=O)NCCCn1nc([C@@H](C)N(C(=O)[C@H]2CNCCO2)C2CC2)cc1-c1ncccc1F [Example 185]
1 | COC(=O)NCCCn1nc([C@@H](C)N(C(=O)[C@H]2CNCCO2)C2CC2)cc1-c1ccc(F)cn1 [Example 177]
2.6 | CCc1cn(CCCOC)c2cc([C@@H](C)N(C(=O)[C@H]3CNCCO3)C3CC3)nc(C#N)c12 [Example 150]
0.7 | COC(=O)NCCCc1cc([C@@H](C)N(C(=O)[C@H]2CNCCO2)C2CC2)cc(C(F)(F)F)n1 [Example 325]
2.3 | COC(=O)NCCOc1cc([C@@H](C)N(C(=O)[C@H]2CNCCO2)C2CC2)nn1-c1ccccc1 [Example 208]
4.3 | COCCCn1ncc2c(C)cc([C@@H](C)N(C(=O)[C@H]3CNC[C@@H](COC)O3)C3CC3)nc21 [Example 385]
0.4 | COC(=O)NCCCn1cc([C@@H](C)N(C(=O)[C@H]2CNCCO2)C2CC2)nc1-c1ccc(F)cc1 [Example 171]
0.5 | COC(=O)NCCCn1nc([C@@H](C)N(C(=O)[C@H]2CNCCO2)C2CC2)cc1-c1ncccc1C [Example 187]
